Experimental data published in PMC9019904, “AD Informer Set: Chemical tools to facilitate Alzheimer's disease drug discovery” (Alzheimer's & Dementia : Translational Research & Clinical …, 2022).
Converted amounts (≈) assume the structure as drawn.

Tests used:
cellular system = settings: published cellular activity at 10 μM; cited from earlier work
[1] = Kinetic solubility in aqueous buffer pH 7.4 by total chemiluminescent nitrogen determination (Analiza); settings: aqueous buffer, pH 7.4, aqueous buffer, kinetic from dmso stock
[2] = tested on: BV2 (mouse microglia) cell line; assay: pHrodo-myelin phagocytosis/cell viability high content imaging assay: phagocytosis signal; format: cell-based; settings: BV2 cells, 10 μM
Method in brief: (§1)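 HCI read-out ~22 h post pHrodo-myelin; phagocytosis + viability simultaneously; 3 parameters extracted; intensity up = early apoptosis, down = later apoptosis.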

[3] = tested on: BV2 (mouse microglia) cell line; assay: pHrodo-myelin phagocytosis/cell viability high content imaging assay: viability (cell count, nuclear area, nuclear intensity); settings: BV2 cells, 10 μM, cell count <70% control
Method in brief: (§2)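 Viability was read as total cell count per well by high-content imaging, with mean average nuclear intensity per cell profiling apoptosis (rise early, fall late). Compounds were given at 10 μM for 48 h, pHrodo-myelin being added for the final 20 h. Values are means of two points as % untreated control.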

[4] = tested on: HMC3 (human microglia) cell line; assay: as above; settings: HMC3 cells, 10 μM, cell count <70% control
Method in brief: as §2

[5] = tested on: HMC3 (human microglia) cell line; assay: pHrodo-myelin phagocytosis/cell viability high content imaging assay: phagocytosis signal; format: cell-based; settings: HMC3 cells, 10 μM
Method in brief: as §1

| SMILES | Reported as cell active (<10 μM) (cellular system) | solubility kinetic [1] | Stimulation of mouse microglial phagocytosis at 10 μM (>150% control) [2] | Mouse microglial cytotoxicity at 10 μM (<70% control) [3] | Human microglial cytotoxicity at 10 μM (<70% control) [4] | Stimulation of human microglial phagocytosis at 10 μM (>150% control) [5] | Inhibition of human microglial phagocytosis at 10 μM (<70% control) [5] |
| --- | --- | --- | --- | --- | --- | --- | --- |
| Cc1cc2c(cc1C1(c3ccc(C(=O)O)cn3)CC1)C(C)(C)CCC2(C)C [LG 100268] | Y (Published data supports that the compound is active in a cellular system when dosed at 10 μM (Y/N)) | 92.8 µM (≈ 33.7 µg/mL) |  |  |  |  |  |
| Oc1c(F)cc(-c2cnccc2-c2ccc(N3CCOCC3)cc2)cc1F [LJI308] | Y (Published data supports that the compound is active in a cellular system when dosed at 10 μM (Y/N)) | 3.7 µM (≈ 1.36 µg/mL) | Y (The compound was found to stimulate phagocytosis (response threshold: >150% control) when murine immortalized microglial cells were dosed at 10 μM (Y: yes)) |  |  |  |  |
| CC(C)CCN1c2nc(Nc3cc(F)c(O)c(F)c3)ncc2N(C)C(=O)C1C (stereo not shown) [BI-D1870] | Y (Published data supports that the compound is active in a cellular system when dosed at 10 μM (Y/N)) | 0.8 µM (≈ 0.313 µg/mL) |  | Y (The compound was found to be cytotoxic (cell count threshold: <70% control) when murine immortalized microglial cells were dosed at 10 μM (Y: yes)) | Y (The compound was found to be cytotoxic (cell count threshold: <70% control) when human immortalized microglial cells were dosed at 10 μM (Y: yes)) | Y (The compound was found to stimulate phagocytosis (response threshold: >150% control) when human immortalized microglial cells were dosed at 10 μM (Y: yes)) |  |
| CN1c2ccc([N+](=O)[O-])cc2N=C(c2ccc(C(=O)O)cc2)c2cc3c(cc21)C(C)(C)CCC3(C)C [HX531] | Y (Published data supports that the compound is active in a cellular system when dosed at 10 μM (Y/N)) | < 0.7 µM |  | Y (The compound was found to be cytotoxic (cell count threshold: <70% control) when murine immortalized microglial cells were dosed at 10 μM (Y: yes)) |  |  |  |
| Nc1ncnc2c1nc(Sc1ccc(Cl)cc1)n2[C@@H]1O[C@@H]2COP(=O)([O-])O[C@H]2[C@H]1O.[Na+] [pCPT-cAMP] | Y (Published data supports that the compound is active in a cellular system when dosed at 10 μM (Y/N)) | 135 µM |  |  |  |  |  |
| Cc1cc(C)nc(NC(=S)N2CCN(c3ccc(C(F)(F)F)cn3)CC2)c1 [NCT-502] | Y (Published data supports that the compound is active in a cellular system when dosed at 10 μM (Y/N)) | 2.6 µM (≈ 1.03 µg/mL) | Y (The compound was found to stimulate phagocytosis (response threshold: >150% control) when murine immortalized microglial cells were dosed at 10 μM (Y: yes)) |  |  |  |  |
| CCc1ccc(CCOc2ccc(CC3SC(=O)NC3=O)cc2)nc1 (stereo not shown) [Pioglitazone] | Y (Published data supports that the compound is active in a cellular system when dosed at 10 μM (Y/N)) | 3.2 µM (≈ 1.14 µg/mL) |  |  |  |  |  |
| COc1ccc(CCN2CCN(CCCc3ccccc3)CC2)cc1OC.Cl.Cl [Cutamesine (SA 4503)] | Y (Published data supports that the compound is active in a cellular system when dosed at 10 μM (Y/N)) | 108 µM |  |  |  |  |  |
| O=C1CCc2cc(OCCCCc3nnnn3C3CCCCC3)ccc2N1 [Cilostazol (OPC 13013)] | Y (Published data supports that the compound is active in a cellular system when dosed at 10 μM (Y/N)) | 58.5 µM (≈ 21.6 µg/mL) |  |  |  |  |  |
| CN(CCOc1ccc(CC2SC(=O)NC2=O)cc1)c1ccccn1 (stereo not shown) [Rosiglitazone] | Y (Published data supports that the compound is active in a cellular system when dosed at 10 μM (Y/N)) | 57 µM (≈ 20.4 µg/mL) |  |  |  |  |  |
| COC(=O)C1=C(C)NC2=C(C(=O)c3ccccc32)C1c1ccccc1OCc1ccccc1F (stereo not shown) [5408-1697] | Y (Published data supports that the compound is active in a cellular system when dosed at 10 μM (Y/N)) | < 2.1 µM | Y (The compound was found to stimulate phagocytosis (response threshold: >150% control) when murine immortalized microglial cells were dosed at 10 μM (Y: yes)) |  |  |  | Y (The compound was found to inhibit phagocytosis (response threshold: <70% control) when human immortalized microglial cells were dosed at 10 μM (Y: yes)) |
| CCOC(=O)c1cccc(CNc2ccc(N(C)C(=O)Nc3ccccc3)cc2)c1 [GN6958 (Compound 8)] | Y (Published data supports that the compound is active in a cellular system when dosed at 10 μM (Y/N)) | 3.7 µM (≈ 1.49 µg/mL) | Y (The compound was found to stimulate phagocytosis (response threshold: >150% control) when murine immortalized microglial cells were dosed at 10 μM (Y: yes)) |  |  |  |  |
| Cc1cc(C)nc(NS(=O)(=O)c2ccc(NC(=O)NC(=O)c3ccc(Cl)cc3Cl)cc2)n1 [LDN-193188] | Y (Published data supports that the compound is active in a cellular system when dosed at 10 μM (Y/N)) | 7.1 µM (≈ 3.51 µg/mL) |  |  |  |  |  |
| Cc1cc(C)nc(NC(=S)N2CCN(Cc3ccc(C(F)(F)F)cc3)CC2)c1 [NCT-503] | Y (Published data supports that the compound is active in a cellular system when dosed at 10 μM (Y/N)) | 34.3 µM (≈ 14 µg/mL) | Y (The compound was found to stimulate phagocytosis (response threshold: >150% control) when murine immortalized microglial cells were dosed at 10 μM (Y: yes)) |  |  |  |  |
| Nc1ncnc2c1nc(Br)n2[C@@H]1O[C@@H]2COP(=O)([O-])O[C@H]2[C@H]1O.[Na+] [8-Bromo-cAMP (sodium salt)] | Y (Published data supports that the compound is active in a cellular system when dosed at 10 μM (Y/N)) | 166 µM | Y (The compound was found to stimulate phagocytosis (response threshold: >150% control) when murine immortalized microglial cells were dosed at 10 μM (Y: yes)) |  |  |  |  |
| Cc1c(COc2cc(OCc3cccc(C#N)c3)c(CN3C[C@H](O)C[C@@H]3C(=O)O)cc2Cl)cccc1-c1ccc2c(c1)OCCO2 [BMS-1166] | Y (Published data supports that the compound is active in a cellular system when dosed at 10 μM (Y/N)) | 2.1 µM (≈ 1.35 µg/mL) |  |  |  |  |  |
| CCCCCCOc1cc2c(cc1N(C)c1ncc(C(=O)O)cn1)C(C)(C)CCC2(C)C [PA 452] | Y (Published data supports that the compound is active in a cellular system when dosed at 10 μM (Y/N)) | 13.9 µM (≈ 6.11 µg/mL) | Y (The compound was found to stimulate phagocytosis (response threshold: >150% control) when murine immortalized microglial cells were dosed at 10 μM (Y: yes)) |  |  |  | Y (The compound was found to inhibit phagocytosis (response threshold: <70% control) when human immortalized microglial cells were dosed at 10 μM (Y: yes)) |
| N[C@@H](CC(=O)Nc1ccc(Oc2cc(F)c(F)cc2Br)cc1)C(=O)O [WAY 213613] | Y (Published data supports that the compound is active in a cellular system when dosed at 10 μM (Y/N)) | 148 µM (≈ 61.5 µg/mL) | Y (The compound was found to stimulate phagocytosis (response threshold: >150% control) when murine immortalized microglial cells were dosed at 10 μM (Y: yes)) | Y (The compound was found to be cytotoxic (cell count threshold: <70% control) when murine immortalized microglial cells were dosed at 10 μM (Y: yes)) |  |  |  |
| CCCc1cc(-c2nc(-c3ccc(C)cc3)cs2)ccn1 [Fatostatin] | Y (Published data supports that the compound is active in a cellular system when dosed at 10 μM (Y/N)) | < 1.1 µM | Y (The compound was found to stimulate phagocytosis (response threshold: >150% control) when murine immortalized microglial cells were dosed at 10 μM (Y: yes)) | Y (The compound was found to be cytotoxic (cell count threshold: <70% control) when murine immortalized microglial cells were dosed at 10 μM (Y: yes)) |  |  |  |
| CC(=O)c1nc([C@@H](O)[C@H](O)[C@H](O)CO)c[nH]1 [THI] | Y (Published data supports that the compound is active in a cellular system when dosed at 10 μM (Y/N)) | 186 µM (≈ 42.8 µg/mL) | Y (The compound was found to stimulate phagocytosis (response threshold: >150% control) when murine immortalized microglial cells were dosed at 10 μM (Y: yes)) |  |  |  |  |
| CCc1ccc(S(=O)(=O)c2ccccc2)cc1S(=O)(=O)NCCCN(C)C [sFRP-1 Inhibitor] | Y (Published data supports that the compound is active in a cellular system when dosed at 10 μM (Y/N)) | 164 µM (≈ 67.2 µg/mL) | Y (The compound was found to stimulate phagocytosis (response threshold: >150% control) when murine immortalized microglial cells were dosed at 10 μM (Y: yes)) |  |  |  |  |
